Data set [1] relates to T. gondii β-gal tachyzoites. The data set is described as follows: IC50 determination with T. gondii β-gal tachyzoites grown in HFF monolayers. Format: cell-based, Toxoplasma gondii. The following applies: for Selectivity Index: HFF vs T. gondii, compound applied prior to / concomitantly with infection; for IC50: Toxoplasma gondii, Tg-β-gal in HFF, [upper, lower limit of 95% CI], read-out: IC50 T. gondii (nM) [LS. How it is done:
The efficacy of DCQ in vitro was determined using T. gondii β-gal constitutively expressing β-galactosidase grown in HFF monolayers. […] The low IC50 values and the low degree of cytotoxicity against HFF host cells in vitro encouraged us to examine the efficacy of oral treatment of CD1 mice infected with T. gondii oocysts with DCQ at 10 mg/kg/day for 5 days.
Due to the negative effects of treatment with DCQ, we investigated the efficacy in vitro of the three DCQ derivatives RMB054, RMB055 and RMB060 (Figure 1) in comparison to DCQ. Different concentrations of DCQ and the derivatives in DMSO were added to HFF either concomitantly with infection of T. gondii-β-gal tachyzoites, or 3 h after infection. […] The corresponding dose-response curves are shown in Supplementary Materials Figure S1. The viability of uninfected HFF was not impaired by the compounds up to concentrations of 5 µM (DCQ and RMB054) or 10 µM (RMB055, RMB060) (Table 1).
(§1) HFF cytotoxicity assessments and IC50 determinations using cultures of Tg-β-gal tachyzoites grown in HFF were carried out as described previously. IC50 values were calculated with the logit-log-transformation of the relative growth and subsequent regression analysis was done with the corresponding software tool contained in Microsoft Excel software package (Microsoft, Seattle, WA). For the long-term treatments, HFF grown in T25 culture flasks were infected with 5 × 10^5 TgMe49 tachyzoites, and after 4.5 h 0.5 μM DCQ, RMB054 or RMB060 were added. Infected cultures treated with the highest corresponding concentration of DMSO (0.5%) served as controls. Prolonged treatments for up to 24 days were carried out, with the addition of fresh medium containing the respective drug every 3–4 days. Cultures were inspected by light microscopy on a daily basis. On days 3, 6, 9, 13, 16, 20 and 24, the compound-containing medium was removed, and parasites were maintained without drug pressure until host cell lysis (plaque formation) was evident.

The test system of data set [2] is BAG1 (bradyzoite antigen 1) expression in T. gondii Me49. The data set is described as follows: Immunofluorescence staining for BAG1 expression in TgMe49-infected HFF. Type of data set: cell-based, Toxoplasma gondii. As to conditions: treatment for 48 h. How it is done: For immunofluorescence microscopy, 4 × 10^4 HFF were grown on glass coverslips for 24 h to form a sub-confluent monolayer and were exposed to 1.2 × 10^5 TgMe49 tachyzoites during 4 h at 37 °C and 5% CO2. The medium was replaced and supplemented with 20 nM DCQ and RMB060, or medium containing DMSO as control. Cultures infected with TgPgSp1 (low passage number) served as positive control for BAG1 (bradyzoite antigen 1) expression. Infected cells were cultured for 16 h, 24 h, and 48 h and fixed and labelled for immunofluorescence staining as described previously. A polyclonal rabbit anti-BAG1 antiserum was applied at 1:200 dilution, followed by a goat-anti-rabbit fluorescein-isothiocyanate conjugate (1:300), the monoclonal mouse anti-TgSAG1 antibody was diluted (1:100), followed by goat anti-mouse conjugated to tetramethylrhodamine-isothiocyanate at 1:300. Subsequently, samples were mounted in H-1200 Vectashield mounting medium (Vector Laboratories, Burlingame, CA, USA) containing 4,6-diamidino-2-phenylindole and were viewed on a Nikon E80i fluorescence microscope (Tokyo, Japan). Processing of images was performed using Openlab 5.5.2 (Improvision, PerkinElmer, Waltham, MA, USA) and the ImageJ software, version 1.53 m.

Data set [3] deals with human foreskin fibroblasts (HFF). Put plainly: HFF cytotoxicity assessment. Type of data set: cell-based. As to conditions: for IC50: Homo sapiens, Fibroblast, uninfected HFF, no decline in viability over the concentration range. How it is done: as §1
Setting [4] is: compound added 3 h post-infection, LI] Compound Added 3 h Post-infection.
Setting [5] is: compound added prior to / concomitantly with infection, LI] Compound Added Prior to Infection.

Like-named read-outs stand apart in the source and are kept apart here. A value given as a limit tells only on which side of the number the result lay.

Regarding `CCCCCCCCCCOc1cc2c(OC(=O)N3CCN(CC)C(=O)C3=O)c(C(=O)OCCOC)cnc2cc1OCC` [RMB054], in data set [1], the “Selectivity Index” value is recorded as more than 435. The figures for the IC50 in data set [1] (setting [4]), in data set [1] (setting [5]) and in data set [3] were 11.4 nM, 11.5 nM and more than 5000 nM, respectively. The “Expression of the bradyzoite marker BAG1” value in data set [2] was “not clearly detectable”. The “Concentration up to which viability of uninfected HFF was not impaired” value in data set [3] came out at 5 µM.

In the case of `CCCCCCCCCCOc1cc2c(OC(=O)N3CCN(S(C)(=O)=O)C3=O)c(C(=O)OCCOC)cnc2cc1OCC` [RMB055], in data set [1], the “Selectivity Index” value is recorded as more than 50. In addition, the results for the IC50 in data set [1] (setting [4]), in data set [1] (setting [5]) and in data set [3] were 227 nM, 200 nM and more than 10000 nM, respectively. In data set [3], the “Concentration up to which viability of uninfected HFF was not impaired” value is 10 µM.

The record behind these values is paper PMC8587999, “Assessment of the Activity of Decoquinate and Its Quinoline-O-Carbamate Derivatives against Toxoplasma gondii In Vitro and in Pregnant Mice Infected with T. gondii Oocysts” (Molecules, 2021).
